Biological target: T1, Cytoplasmic tyrosine-protein kinase BMX (Homo sapiens, UniProt P51813)
T1 sequence (P51813 whole entry): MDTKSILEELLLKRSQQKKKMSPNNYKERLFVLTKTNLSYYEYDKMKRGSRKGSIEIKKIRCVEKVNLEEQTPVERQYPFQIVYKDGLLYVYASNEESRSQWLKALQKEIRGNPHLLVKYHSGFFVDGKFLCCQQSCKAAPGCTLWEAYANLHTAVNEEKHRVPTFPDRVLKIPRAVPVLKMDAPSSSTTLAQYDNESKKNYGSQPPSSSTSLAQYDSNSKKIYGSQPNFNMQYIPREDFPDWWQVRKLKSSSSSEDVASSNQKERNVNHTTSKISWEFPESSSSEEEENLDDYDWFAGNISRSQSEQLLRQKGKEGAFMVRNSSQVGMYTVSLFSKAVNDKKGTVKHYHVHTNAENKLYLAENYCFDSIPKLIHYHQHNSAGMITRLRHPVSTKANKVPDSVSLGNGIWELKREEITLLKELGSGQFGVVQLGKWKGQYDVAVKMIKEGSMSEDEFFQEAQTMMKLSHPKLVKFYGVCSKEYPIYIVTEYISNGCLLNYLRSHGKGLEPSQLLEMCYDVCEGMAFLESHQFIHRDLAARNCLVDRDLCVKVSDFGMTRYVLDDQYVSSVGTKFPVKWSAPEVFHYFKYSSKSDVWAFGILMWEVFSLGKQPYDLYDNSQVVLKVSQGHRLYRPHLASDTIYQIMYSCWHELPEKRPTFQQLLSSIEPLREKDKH
Experiment: ChEBML_1715921
Protocol: Inhibition of recombinant full length His-tagged human BMX expressed in baculovirus expression system using poly (4:1 Glu, Tyr) as substrate preincubated for 1 hr followed by substrate addition measured after 1 hr by ADP-glo assay

| IC50 [µM] | SMILES |
| --- | --- |
| 0.013 | C=CC(=O)Nc1cc(-n2c(=O)ccc3cnc4ccc(-c5ccc6c(c5)OCCO6)cc4c32)ccc1C [QL-XII-115] |
| 0.02 | C=CC(=O)Nc1cc(-n2c(=O)ccc3cnc4ccc(-c5ccsc5)cc4c32)ccc1C [QL-XI-75] |
| 0.019 | C=CC(=O)Nc1cc(-n2c(=O)ccc3cnc4ccc(-c5cnc6ccccc6c5)cc4c32)ccc1C [QL-XII-54] |

More lines, now with the values behind:

| SMILES | IC50 [µM] |
| --- | --- |
| C=CC(=O)N1CCc2ccc(-n3c(=O)ccc4cnc5ccc(-c6ccc(N)nc6)cc5c43)cc21 [QL-XII-45] | 0.013 |
| C=CC(=O)Nc1cccc(-n2c(=O)ccc3cnc4ccc(-c5cn[nH]c5)cc4c32)c1 [QL-XI-13] | 0.011 |
| C=CC(=O)Nc1cccc(-n2c(=O)ccc3cnc4ccc(-c5ccc(N)nc5)cc4c32)c1 [QL-X-132] | 0.016 |

— BindingDB's records for doi:10.1016/j.ejmech.2017.06.016 (University of Science and Technology of China, 2017)
